Molecules are shown by their SMILES. Where two headings read alike, the source gives them in different places.

For this assay, the system named is 293T cells. The assay can be described thus: CCK8 cell activity, median lethal dose IC50. The format is cell-based, Human. On the procedure: After incubating 293T cells with different concentrations of the metal-chelated polyphenol complex ([…]), cationic lipid (DOTAP, 0, 0.1, 0.3, 0.9, 2.7, 8.1, 24.3, 72.9, 218.7 μM) and ionizable lipid (ALC0315, 0, 0.1, 0.3, 0.9, 2.7, 8.1, 24.3, 72.9, 218.7 μM) for 48 hours, cell activity was detected using a CCK8 activity detection kit, and the median lethal dose IC50 of the metal-chelated polyphenol complex, cationic lipid (DOTAP) and ionizable lipid (ALC0315) for 293T cells was calculated respectively.
• Cell culture: cells were cultivated with DMEM culture medium containing 10% FBS and 1% Penicillin-Streptomycin Solution, and wait until the cell density reached 80%-90% of the culture bottle; • The remaining culture medium in the culture bottle was washed with PBS, the culture bottle was added with trypsin, and quickly transferred to a 37° C. incubator containing 5% CO2. During close observation, when the cells become slightly round, culture medium was added to stop digestion. The mixture was transferred to a centrifuge tube, centrifuged at 1500 RPM for 5 minutes, and the cells were resuspended with fresh culture medium; • Counting: the cell suspension was diluted to 10,0000 cells per 1 mL according to the purpose, 100 μL per well in a 96-well plate, and at least 5 replicates per group. Drug was added after 24 h of incubation at 37° C., 5% CO2; • After drug incubation for 48 h, 10% CCK8 was added, incubated for 1-3 h, and absorbance was measured by an ELISA reader at 450 nm;
[formula] • IC50 calculation method: with survival rate as the ordinate and drug concentration as the abscissa, IC50 was calculated by Graphpad using [Inhibitor] vs. normalized response-Variable slope analysis method.
The calculation method of IC50 is as described in Example 10.

As usually defined, the IC50 is the concentration that gives 50% inhibition. For `CCCCCCCCC(CCCCCC)C(=O)OCCCCCCN(CCCCO)CCCCCCOC(=O)C(CCCCCC)CCCCCCCC` (stereo not shown) [ALC0315], the IC50 reads like this: (Homo sapiens, HEK-293T, 48 h) 115 µM; (Homo sapiens, HEK-293T, Table 4-3, median lethal dose for 293T cells, CCK8, read-out: IC50) 115 µM.

Turning to `CCCCCCCC/C=C\CCCCCCCC(=O)OCC(C[N+](C)(C)C)OC(=O)CCCCCCC/C=C\CCCCCCCC` (stereo not shown) [DOTAP, N-(2,3-dioleoyloxy) propyl)-N,N, N-trimethylammonium chloride], the IC50 runs as follows: (Table 2-2, median lethal dose for 293T cells, 48 hours, CCK8, read-out: IC50) 25.7 µM; (Table 4-3, median lethal dose for 293T cells, CCK8, read-out: IC50) 25.7 µM.

Values taken from patent publication US20260048142A1, “METAL-CHELATED POLYPHENOL COMPLEX NANOPARTICLE, DRUG-LIPID PARTICLE, PREPARATION METHODS FOR THE SAME, AND USES THEREOF” (priority 2022, published 2026).
